In US11214565B2, “Compound, compositions, and methods” (Denali Therapeutics Inc., priority 2015, dated 2022):

Target: LRRK2 G2019S enzyme (Homo sapiens (Human), UniProt Q5S007, G2019S)
Assay: LRRK2 G2019S TR-FRET biochemical kinase assay (LRRKtide substrate)
Settings: 5 nM LRRK2, 134 μM ATP, 60 minute reaction, 23° C.
How it was run: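 5 nM LRRK2 G2019S preincubated 20 min with LRRKtide and compound (3.162-fold dilution series) in Tris pH 7.5, MgCl2, EGTA, Brij-35, DTT, then reacted 60 min at 23 °C with 134 μM ATP. EDTA-stopped; pLRRKtide antibody detection, TR-FRET read at 340 nm excitation, 520/490–495 nm emission.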

Chain of LRRK2 G2019S enzyme (Q5S007 whole entry G2019S): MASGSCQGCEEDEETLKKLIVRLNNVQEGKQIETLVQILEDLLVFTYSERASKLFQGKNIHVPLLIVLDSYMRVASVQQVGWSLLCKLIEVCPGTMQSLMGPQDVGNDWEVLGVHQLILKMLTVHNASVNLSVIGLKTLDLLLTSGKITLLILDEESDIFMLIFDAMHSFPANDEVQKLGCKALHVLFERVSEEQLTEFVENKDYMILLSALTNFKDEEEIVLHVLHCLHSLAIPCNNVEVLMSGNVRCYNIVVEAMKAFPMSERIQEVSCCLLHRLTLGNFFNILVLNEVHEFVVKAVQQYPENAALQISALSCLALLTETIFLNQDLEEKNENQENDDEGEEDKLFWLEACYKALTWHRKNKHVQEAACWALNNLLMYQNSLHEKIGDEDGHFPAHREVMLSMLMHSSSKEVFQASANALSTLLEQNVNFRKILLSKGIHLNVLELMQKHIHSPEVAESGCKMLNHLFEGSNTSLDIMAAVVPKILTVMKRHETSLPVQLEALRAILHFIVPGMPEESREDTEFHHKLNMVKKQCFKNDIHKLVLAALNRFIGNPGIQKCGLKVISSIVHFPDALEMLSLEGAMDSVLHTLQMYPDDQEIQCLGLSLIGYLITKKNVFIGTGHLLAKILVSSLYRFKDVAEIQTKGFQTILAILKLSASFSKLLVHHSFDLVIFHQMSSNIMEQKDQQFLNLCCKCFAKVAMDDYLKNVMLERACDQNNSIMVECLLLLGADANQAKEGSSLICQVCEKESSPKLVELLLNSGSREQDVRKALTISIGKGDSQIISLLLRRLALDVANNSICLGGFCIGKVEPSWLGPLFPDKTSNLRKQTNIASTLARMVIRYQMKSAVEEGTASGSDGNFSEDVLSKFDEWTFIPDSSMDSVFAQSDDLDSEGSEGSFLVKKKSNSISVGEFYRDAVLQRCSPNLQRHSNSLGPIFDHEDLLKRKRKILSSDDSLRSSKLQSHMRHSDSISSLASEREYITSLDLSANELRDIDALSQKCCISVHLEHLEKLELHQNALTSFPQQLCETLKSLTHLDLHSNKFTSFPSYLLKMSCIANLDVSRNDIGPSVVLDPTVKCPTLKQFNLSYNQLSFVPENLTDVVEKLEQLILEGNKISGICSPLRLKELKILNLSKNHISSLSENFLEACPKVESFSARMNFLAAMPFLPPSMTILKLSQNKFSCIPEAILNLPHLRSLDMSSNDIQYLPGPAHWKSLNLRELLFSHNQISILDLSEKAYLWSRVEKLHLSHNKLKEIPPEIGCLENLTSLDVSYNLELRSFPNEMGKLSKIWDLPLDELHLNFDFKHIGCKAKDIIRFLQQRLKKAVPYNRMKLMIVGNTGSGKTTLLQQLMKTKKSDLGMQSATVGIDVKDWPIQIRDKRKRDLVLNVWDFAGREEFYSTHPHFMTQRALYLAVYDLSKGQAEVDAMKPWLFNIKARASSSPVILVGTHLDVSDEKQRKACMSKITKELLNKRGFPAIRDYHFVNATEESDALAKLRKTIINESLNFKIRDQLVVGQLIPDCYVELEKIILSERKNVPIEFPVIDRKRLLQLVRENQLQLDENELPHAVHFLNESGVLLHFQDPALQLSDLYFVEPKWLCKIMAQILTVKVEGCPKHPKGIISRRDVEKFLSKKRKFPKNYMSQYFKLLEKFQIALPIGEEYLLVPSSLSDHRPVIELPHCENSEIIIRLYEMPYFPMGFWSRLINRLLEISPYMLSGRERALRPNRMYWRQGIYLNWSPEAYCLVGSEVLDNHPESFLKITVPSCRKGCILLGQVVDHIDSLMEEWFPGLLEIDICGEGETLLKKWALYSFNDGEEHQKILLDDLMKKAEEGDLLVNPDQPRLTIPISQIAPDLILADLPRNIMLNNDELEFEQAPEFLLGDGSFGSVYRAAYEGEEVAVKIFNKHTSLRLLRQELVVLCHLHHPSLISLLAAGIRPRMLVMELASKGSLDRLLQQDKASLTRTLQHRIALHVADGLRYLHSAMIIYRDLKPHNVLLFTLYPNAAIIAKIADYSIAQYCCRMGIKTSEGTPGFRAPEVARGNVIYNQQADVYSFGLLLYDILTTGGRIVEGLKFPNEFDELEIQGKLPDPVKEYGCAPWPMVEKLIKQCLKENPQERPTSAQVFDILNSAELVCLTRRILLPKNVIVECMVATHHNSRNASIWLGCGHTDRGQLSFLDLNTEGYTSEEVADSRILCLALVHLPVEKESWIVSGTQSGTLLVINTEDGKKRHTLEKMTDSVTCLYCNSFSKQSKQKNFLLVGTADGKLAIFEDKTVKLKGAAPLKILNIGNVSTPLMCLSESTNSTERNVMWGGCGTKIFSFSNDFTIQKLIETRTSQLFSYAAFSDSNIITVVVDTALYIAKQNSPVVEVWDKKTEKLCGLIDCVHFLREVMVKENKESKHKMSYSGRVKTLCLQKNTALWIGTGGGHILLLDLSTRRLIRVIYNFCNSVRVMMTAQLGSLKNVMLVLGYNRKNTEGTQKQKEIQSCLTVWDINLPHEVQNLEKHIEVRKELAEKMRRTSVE

Q: Which IC50 (Table A-2) does the source give for `Cc1nn(C2CCOCC2)cc1Nc1ncc(C(F)(F)F)c(C2CC2)n1` [Compound A-25, 4-cyclopropyl-N-(3-methyl-1-tetrahydropyran-4-yl-pyrazol-4-yl)-5-(trifluoromethyl)pyrimidin-2-amine] here?
A: The IC50 was 30 to 60 nM.

Q: How did the IC50 (Table D-4) turn out when `CNc1nc(Nc2cnn([C@H]3C[C@@H](n4nccn4)C3)c2C)ncc1Br` [Compound D-185] was run?
A: The IC50 was less than 30 nM.

Q: `Cc1c(Nc2ncc(C(F)(F)F)c(C3CC3)n2)cnn1C1COC1` [Compound A-15, 4-cyclopropyl-N-[5-methyl-1-(oxetan-3-yl)pyrazol-4-yl]-5-(trifluoromethyl)pyrimidin-2-amine] was tested. Which IC50 (Table A-2) did it give?
A: The IC50 was less than 30 nM.

Q: Which IC50 (Table D-4) does the source give for `CNc1nc(Nc2cnn([C@H]3C[C@H](n4ncnc4C)C3)c2C)ncc1C(F)(F)F` [Compound D-109] here?
A: Its IC50 is less than 30 nM.

Q: `CNc1nc(Nc2cnn([C@H]3C[C@H](n4cc(F)cn4)C3)c2C)ncc1Br` [Compound D-193] was tested. Which IC50 (Table D-4) did it give?
A: The IC50 was less than 30 nM.

Q: With `CNc1nc(Nc2cn(C(C)COC(F)F)nc2C)ncc1C(F)(F)F` [Compounds D-96] as the compound, how does the IC50 (Table D-4) read?
A: Its IC50 is less than 30 nM.

Q: For `CNc1nc(Nc2cn(CC3(Cn4cncn4)CC3)nc2C)ncc1C(F)(F)F` [Compound D-5, N2-(1-((1-((1H-1,2,4-triazol-1-yl)methyl)cyclopropyl)methyl)-3-methyl-1H-pyrazol-4-yl)-N4-methyl-5-(trifluoromethyl)pyrimidine-2,4-diamine], which IC50 (Table D-4) is on record?
A: The IC50 was greater than 60 nM.

Q: How did the IC50 (Table D-4) turn out when `Cc1c(Nc2ncc(C(F)(F)F)c(NC3CC3)n2)cnn1C(C)(C#N)CF` [Compounds D-202] was run?
A: Its IC50 is less than 30 nM.

Q: `CNc1nc(Nc2cn(C3(C)CCn4ccnc43)nc2C)ncc1C(F)(F)F` [Compounds D-188] was tested. Which IC50 (Table D-4) did it give?
A: Its IC50 is greater than 60 nM.

Q: `Cc1nn(C)cc1Nc1nc(C2CC2)c2c(C#N)c[nH]c2n1` [Compound C-19, 4-cyclopropyl-2-[(1,3-dimethylpyrazol-4-yl)amino]-7H-pyrrolo[2,3-d]pyrimidine-5-carbonitrile] was tested. Which IC50 (Table C-2) did it give?
A: Its IC50 is less than 50 nM.

Q: `CCNc1nc(Nc2cn(C3CCc4nc[nH]c43)nc2C)ncc1C(F)(F)F` [Compound D-131] was tested. Which IC50 (Table D-4) did it give?
A: Its IC50 is less than 30 nM.

Q: Which IC50 (Table A-2) does the source give for `CC1(O)CCCC1n1ncc(Nc2ncc(C(F)(F)F)c(C3CC3)n2)c1Cl` (single isomer, unassigned) [Compound A-49, 2-(5-chloro-4-((4-cyclopropyl-5-(trifluoromethyl)pyrimidin-2-yl)amino)-1H-pyrazol-1-yl)-1-methylcyclopentanol] here?
A: Its IC50 is greater than 60 nM.

Q: Which IC50 (Table C-2) does the source give for `Cc1c(Nc2cc(C3CC3)c3c(C#N)c[nH]c3n2)cnn1C1CC1` [Compound C-53] here?
A: Its IC50 is less than 50 nM.

Q: For `CCNc1nc(Nc2cnn([C@H]3C[C@H](N4CCOCC4)C3)c2C)ncc1C(F)(F)F` [Compound D-153], which IC50 (Table D-4) is on record?
A: Its IC50 is less than 30 nM.

Q: `CNc1nc(Nc2cnn([C@H]3C[C@@H](n4nccn4)C3)c2C)ncc1C(F)(F)F` [Compound D-77] was tested. Which IC50 (Table D-4) did it give?
A: Its IC50 is less than 30 nM.

Q: With `N#Cc1c[nH]c2nc(Nc3cnn4c3CC3(CC3)C4)nc(C3CC3)c12` [Compound C-13, 4-cyclopropyl-2-(spiro[4,6-dihydropyrrolo[1,2-b]pyrazole-5,1′-cyclopropane]-3-ylamino)-7H-pyrrolo[2,3-d]pyrimidine-5-carbonitrile] as the compound, how does the IC50 (Table C-2) read?
A: The IC50 was less than 50 nM.

Q: For `CNc1nc(Nc2cnn([C@H]3CCC(n4nccn4)C3)c2C)ncc1C(F)(F)F` (stereo partly drawn) [Compounds D-156], which IC50 (Table D-4) is on record?
A: Its IC50 is less than 30 nM.

Q: For `CCN1CC(n2ncc(Nc3ncc(C(F)(F)F)c(C4CC4)n3)c2C)CCC1=O` (single isomer, unassigned) [Compound A-60], which IC50 (Table A-2) is on record?
A: The IC50 was less than 30 nM.

Q: `CNc1nc(Nc2cn(C3CCC(n4ccnn4)C3)nc2C)ncc1C(F)(F)F` [Compound D-125] was tested. Which IC50 (Table D-4) did it give?
A: The IC50 was 30 to 60 nM.

Q: Which IC50 (Table C-2) does the source give for `Cc1cn(C)nc1Nc1cc(C2CC2)c2nc[nH]c2n1` [Compound C-35] here?
A: Its IC50 is greater than 100 nM.

Q: How did the IC50 (Table D-4) turn out when `CNc1nc(Nc2cn(C3CCc4nnc(C)n4C3)nc2C)ncc1C(F)(F)F` [Compound D-8, N4-methyl-N2-[3-methyl-1-(3-methyl-5,6,7,8-tetrahydro-[1,2,4]triazolo[4,3-a]pyridin-6-yl)pyrazol-4-yl]-5-(trifluoromethyl)pyrimidine-2,4-diamine] was run?
A: The IC50 was greater than 60 nM.

Q: Which IC50 (Table D-4) does the source give for `CNc1nc(Nc2cnn(CC(C)OC(F)F)c2C)ncc1C(F)(F)F` [Compound D-17] here?
A: Its IC50 is less than 30 nM.

Q: Which IC50 (Table B-2) does the source give for `CCOc1nc(Nc2cn(C(C)(C)C#N)nc2C)nc2[nH]cc(Cl)c12` [Compound B-3, 2-[4-[[5-chloro-4-ethoxy-7H-pyrrolo[2,3-d]pyrimidin-2-yl]amino]-3-methyl-pyrazol-1-yl]-2-methyl-propanenitrile] here?
A: The IC50 was no more than 1 nM.

Q: `CNc1nc(Nc2cnn(C3CCC(n4nccn4)C3)c2C)ncc1C(F)(F)F` [Compound D-90] was tested. Which IC50 (Table D-4) did it give?
A: The IC50 was less than 30 nM.

Q: Which IC50 (Table A-2) does the source give for `Cc1nn([C@H]2C[C@H](c3ncnn3C)C2)cc1Nc1ncc(C(F)(F)F)c(C2CC2)n1` [Compound A-81, 4-cyclopropyl-N-(3-methyl-1-((1r,3r)-3-(1-methyl-1H-1,2,4-triazol-5-yl)cyclobutyl)-1H-pyrazol-4-yl)-5-(trifluoromethyl)pyrimidin-2-amine] here?
A: Its IC50 is less than 30 nM.

Q: How did the IC50 (Table A-2) turn out when `Cc1nn(C(C)(C)C#N)cc1Nc1ncc(C(F)(F)F)c([C@H]2C[C@@H]2F)n1` (single isomer, unassigned) [Compound A-13, 2-(4-((4-(2-fluorocyclopropyl)-5-(trifluoromethyl)pyrimidin-2-yl)amino)-3-methyl-1H-pyrazol-1-yl)-2-methylpropanenitrile] was run?
A: The IC50 was greater than 60 nM.

Q: `CNc1nc(Nc2cn(C3CCn4ccnc43)nc2C)ncc1C(F)(F)F` [Compound D-137] was tested. Which IC50 (Table D-4) did it give?
A: Its IC50 is less than 30 nM.

Q: `CNc1nc(Nc2cn([C@H]3C[C@@H](c4nncs4)C3)nc2C)ncc1C(F)(F)F` [Compound D-83] was tested. Which IC50 (Table D-4) did it give?
A: The IC50 was less than 30 nM.

Q: `Cc1nn(C(C)(C)c2ncn(C)n2)cc1Nc1ncc(Br)c(C2CC2)n1` [Compound A-53, 5-bromo-4-cyclopropyl-N-(3-methyl-1-(2-(1-methyl-1H-1,2,4-triazol-3-yl)propan-2-yl)-1H-pyrazol-4-yl)pyrimidin-2-amine] was tested. Which IC50 (Table A-2) did it give?
A: The IC50 was less than 30 nM.

Q: With `CCNc1nc(Nc2cnn([C@H]3C[C@@H](n4nccn4)C3)c2C)ncc1C(F)(F)F` [Compound D-148] as the compound, how does the IC50 (Table D-4) read?
A: The IC50 was less than 30 nM.

Q: How did the IC50 (Table D-4) turn out when `CCNc1nc(Nc2cnn([C@H]3CCCn4ccnc43)c2C)ncc1C(F)(F)F` [Compounds D-170] was run?
A: Its IC50 is less than 30 nM.

Q: How did the IC50 (Table C-2) turn out when `Cc1nc2c(C3CC3)nc(Nc3cn(C)nc3C)nc2[nH]1` [Compound C-34] was run?
A: Its IC50 is greater than 100 nM.

Q: For `Cc1nn(Cc2ccn(C)n2)cc1Nc1ncc(C(F)(F)F)c(C2CC2)n1` [Compound A-55, 4-cyclopropyl-N-(3-methyl-1-((1-methyl-1H-pyrazol-3-yl)methyl)-1H-pyrazol-4-yl)-5-(trifluoromethyl)pyrimidin-2-amine], which IC50 (Table A-2) is on record?
A: The IC50 was less than 30 nM.

Q: `CNc1nc(Nc2cnn(C)c2C)nc2[nH]cc(Cl)c12` [Compound B-1, 5-chloro-N^2-(1,5-dimethylpyrazol-4-yl)-N4-methyl-7H-pyrrolo[2,3-d]pyrimidine-2,4-diamine] was tested. Which IC50 (Table B-2) did it give?
A: Its IC50 is 1 to 2 nM.

Q: For `CCNc1nc(Nc2cnn([C@H]3C[C@@H](N4CCOCC4)C3)c2C)ncc1C(F)(F)F` [Compound D-81], which IC50 (Table D-4) is on record?
A: Its IC50 is less than 30 nM.

Q: With `Cc1nnc(C(C)(C)n2cc(Nc3ncc(C(F)(F)F)c(C4CC4)n3)c(C)n2)o1` [Compound A-74, 4-cyclopropyl-N-(3-methyl-1-(2-(5-methyl-1,3,4-oxadiazol-2-yl)propan-2-yl)-1H-pyrazol-4-yl)-5-(trifluoromethyl)pyrimidin-2-amine] as the compound, how does the IC50 (Table A-2) read?
A: Its IC50 is 30 to 60 nM.

Q: With `CCNc1nc(Nc2cnn(CC3(CC#N)CC3)c2C)ncc1C(F)(F)F` [Compound D-158] as the compound, how does the IC50 (Table D-4) read?
A: Its IC50 is less than 30 nM.

Q: `CNc1nc(Nc2cnn([C@H]3C[C@H](n4nccn4)C3)c2C)ncc1Br` [Compound D-128] was tested. Which IC50 (Table D-4) did it give?
A: The IC50 was less than 30 nM.

Q: With `Cc1nn(C(CF)CF)cc1Nc1ncc(C(F)(F)F)c(C2CC2)n1` [Compound A-29, 4-cyclopropyl-N-[1-[2-fluoro-1-(fluoromethyl)ethyl]-3-methyl-pyrazol-4-yl]-5-(trifluoromethyl)pyrimidin-2-amine] as the compound, how does the IC50 (Table A-2) read?
A: The IC50 was less than 30 nM.

Q: With `Cc1c(Nc2nc(C3CC3)c3c(Cl)c[nH]c3n2)cnn1C(CF)CF` [Compound C-32] as the compound, how does the IC50 (Table C-2) read?
A: Its IC50 is less than 50 nM.

Q: `CCOc1nc(Nc2cn(C(C)(C)C#N)nc2C)nc2[nH]cnc12` [Compound B-12, 2-[4-[(6-ethoxy-9H-purin-2-yl)amino]-3-methyl-pyrazol-1-yl]-2-methyl-propanenitrile] was tested. Which IC50 (Table B-2) did it give?
A: Its IC50 is 2 to 20 nM.

Q: Which IC50 (Table D-4) does the source give for `CCNc1nc(Nc2cn(C3CCc4c(C)noc43)nc2C)ncc1C(F)(F)F` [Compound D-79] here?
A: The IC50 was less than 30 nM.

Q: How did the IC50 (Table D-4) turn out when `CCNc1nc(Nc2cnn(C3CCc4c(C)noc43)c2C)ncc1C(F)(F)F` [Compound D-91] was run?
A: The IC50 was less than 30 nM.

Q: How did the IC50 (Table C-2) turn out when `Cc1c(Nc2nc(C3CC3)c3nc[nH]c3n2)cnn1C(CF)CF` [Compound C-2, 6-cyclopropyl-N-(1-(1,3-difluoropropan-2-yl)-5-methyl-1H-pyrazol-4-yl)-9H-purin-2-amine] was run?
A: The IC50 was less than 50 nM.

Q: For `CCNc1nc(Nc2cnn(C3CCn4nccc43)c2C)ncc1C(F)(F)F` [Compound D-145], which IC50 (Table D-4) is on record?
A: The IC50 was less than 30 nM.

Q: `CCNc1nc(Nc2cn(C3CCn4nccc43)nc2C)ncc1C(F)(F)F` [Compound D-146] was tested. Which IC50 (Table D-4) did it give?
A: The IC50 was less than 30 nM.

Q: How did the IC50 (Table D-4) turn out when `CCNc1nc(Nc2cn(C3CCc4ncsc43)nc2C)ncc1C(F)(F)F` [Compound D-57] was run?
A: Its IC50 is less than 30 nM.

Q: How did the IC50 (Table D-4) turn out when `CNc1nc(Nc2cnn([C@H]3C[C@@H](n4cccn4)C3)c2C)ncc1C(F)(F)F` [Compound D-49, cis-N4-methyl-N2-[5-methyl-1-(3-pyrazol-1-ylcyclobutyl)pyrazol-4-yl]-5-(trifluoromethyl)pyrimidine-2,4-diamine] was run?
A: Its IC50 is less than 30 nM.

Q: How did the IC50 (Table D-4) turn out when `CCNc1nc(Nc2cnn(C3(CC#N)CC3)c2C)ncc1C(F)(F)F` [Compound D-155] was run?
A: The IC50 was less than 30 nM.

Q: How did the IC50 (Table A-2) turn out when `Cc1nn(C2(c3ncn(C)n3)CCC2)cc1Nc1ncc(C(F)(F)F)c(C2CC2)n1` [Compound A-41, 4-cyclopropyl-N-[3-methyl-1-[1-(1-methyl-1,2,4-triazol-3-yl)cyclobutyl]pyrazol-4-yl]-5-(trifluoromethyl)pyrimidin-2-amine] was run?
A: The IC50 was less than 30 nM.

Q: For `CNc1nc(Nc2cn(C(F)(F)C(N)=O)nc2C)ncc1C(F)(F)F` [Compound D-14, 2,2-difluoro-2-[3-methyl-4-[[4-(methylamino)-5-(trifluoromethyl)pyrimidin-2-yl]amino]pyrazol-1-yl]acetamide], which IC50 (Table D-4) is on record?
A: The IC50 was less than 30 nM.
